Selectivity ratio, EC50 and inhibition data for 39 molecules are collected here from ChEMBL document CHEMBL1138961, “Highly selective and potent agonists of sphingosine-1-phosphate 1 (S1P1) receptor” (Bioorg Med Chem Lett, 2006).

The species named for assay [1] is Homo sapiens. Description: Selectivity for S1P1 receptor over S1P2 receptor.
For assay [2], the species on record is Homo sapiens. Nature of the assay: Selectivity for S1P1 receptor over S1P4 receptor.
The species entered for assay [3] is Homo sapiens. Nature of the assay: Selectivity for S1P1 receptor over S1P5 receptor.
Assay [4] addresses Sphingosine 1-phosphate receptor 1 (Homo sapiens, UniProt P21453). Nature of the assay: Agonist activity at S1P1 receptor assessed as induction of [35S]GTP-gamma-S binding. It counts as functional.
Assay [5] has as its target T1, Sphingosine 1-phosphate receptor 3 (Homo sapiens, UniProt Q99500). Description: Agonist activity at S1P3 receptor assessed as induction of [35S]GTP-gamma-S binding. It counts as functional.
For assay [6], the target named is Sphingosine 1-phosphate receptor 5 (Homo sapiens, UniProt Q9H228). Description: Agonist activity at S1P5 receptor assessed as induction of [35S]GTP-gamma-S binding. It counts as functional.
Assay [7] has as its target T1, Sphingosine 1-phosphate receptor 3. Description: Inhibition of S1P3 receptor at 10 uM.

T1 sequence (Q99500 whole entry): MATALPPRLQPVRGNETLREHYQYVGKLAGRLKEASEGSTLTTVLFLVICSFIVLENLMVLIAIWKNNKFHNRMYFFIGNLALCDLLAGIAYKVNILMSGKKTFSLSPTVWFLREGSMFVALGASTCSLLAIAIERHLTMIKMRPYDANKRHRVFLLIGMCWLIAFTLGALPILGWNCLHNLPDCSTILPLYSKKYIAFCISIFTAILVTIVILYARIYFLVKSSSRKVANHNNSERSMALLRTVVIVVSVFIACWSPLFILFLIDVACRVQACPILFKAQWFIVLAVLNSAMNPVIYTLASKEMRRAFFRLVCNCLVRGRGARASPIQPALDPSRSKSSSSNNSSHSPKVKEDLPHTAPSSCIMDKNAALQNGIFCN
Sphingosine 1-phosphate receptor 5, sequence (Q9H228 whole entry): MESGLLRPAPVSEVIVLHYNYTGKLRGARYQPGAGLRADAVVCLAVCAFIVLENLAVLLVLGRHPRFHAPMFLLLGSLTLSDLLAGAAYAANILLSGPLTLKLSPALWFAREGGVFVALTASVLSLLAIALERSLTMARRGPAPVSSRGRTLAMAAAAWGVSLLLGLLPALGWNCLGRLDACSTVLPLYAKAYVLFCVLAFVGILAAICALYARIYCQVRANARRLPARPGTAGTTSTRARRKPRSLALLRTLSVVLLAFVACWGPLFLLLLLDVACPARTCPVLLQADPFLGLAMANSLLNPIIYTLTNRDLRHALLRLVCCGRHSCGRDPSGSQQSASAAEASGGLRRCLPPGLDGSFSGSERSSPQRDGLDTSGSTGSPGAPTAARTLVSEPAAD
Sphingosine 1-phosphate receptor 1, sequence (P21453 whole entry): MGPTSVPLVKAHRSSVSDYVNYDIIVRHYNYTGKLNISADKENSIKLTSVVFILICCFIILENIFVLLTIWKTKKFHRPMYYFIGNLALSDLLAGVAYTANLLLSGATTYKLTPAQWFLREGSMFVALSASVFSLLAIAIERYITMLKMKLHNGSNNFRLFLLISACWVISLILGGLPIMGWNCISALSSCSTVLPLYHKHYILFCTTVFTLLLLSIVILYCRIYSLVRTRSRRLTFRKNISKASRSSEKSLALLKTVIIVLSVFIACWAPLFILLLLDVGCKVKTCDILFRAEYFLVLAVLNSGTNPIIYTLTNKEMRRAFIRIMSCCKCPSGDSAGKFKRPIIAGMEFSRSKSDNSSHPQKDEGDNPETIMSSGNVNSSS

With `CC(=O)Oc1ccc(-c2nnc(-c3ccc(CCC(=O)O)cc3C)s2)cc1C#N`, the Selectivity ratio is > 1000 in the assay listed under Homo sapiens [1], > 1000 in the assay filed under Homo sapiens [2] and 110 in the assay filed under Homo sapiens [3]. In assay [4], the EC50 came out at 94 nM.
As for `Cc1cc(CCC(=O)O)ccc1-c1noc(-c2ccc(OC(C)C)c(Cl)c2)n1`, the Selectivity ratio in the assay listed under Homo sapiens [1] and in the assay filed under Homo sapiens [2] was > 1000 in each case. In addition, the figures for the EC50 in assay [5], in assay [6] and in assay [4] were 940 nM, 73 nM and 0.15 nM, respectively.
Turning to `Cc1cc(CCC(=O)O)ccc1-c1nnc(-c2ccc(OCC3CC3)c(C#N)c2)s1`, the Selectivity ratio in the assay listed under Homo sapiens [1] was > 1000; in the assay listed under Homo sapiens [2] it was > 1000; in the assay filed under Homo sapiens [3], 230. In assay [4], the EC50 worked out at 0.61 nM.
Turning to `Cc1cc(CCC(=O)O)ccc1-c1nnc(-c2ccc(OCC#N)c(C#N)c2)s1`, the Selectivity ratio in the assay listed under Homo sapiens [1] is > 1000; in the assay filed under Homo sapiens [2], > 1000; in the assay filed under Homo sapiens [3] it was 220. Besides, the EC50 in assay [4] was 45 nM.
`Cc1cc(CCC(=O)O)ccc1-c1nnc(-c2ccc(OC(C)C)c(C#N)c2)n1C`: the Selectivity ratio in the assay filed under Homo sapiens [1] and in the assay listed under Homo sapiens [2] was > 1000 throughout. Moreover, the EC50 in assay [5], in assay [6] and in assay [4] was > 10000 nM each time.
For the molecule `CCCOc1ccc(-c2nnc(-c3ccc(CCC(=O)O)cc3C)s2)cc1C#N`, the results for the Selectivity ratio in the assay listed under Homo sapiens [1], in the assay listed under Homo sapiens [2] and in the assay listed under Homo sapiens [3] were > 1000, > 1000 and 110, respectively. The concentration giving a half-maximal response (EC50) in assay [4] is 3.4 nM.
As to `Cc1cc(CCC(=O)O)ccc1-c1ccc(-c2ccc(OC(C)C)c(C#N)c2)o1`, the Selectivity ratio in the assay filed under Homo sapiens [1] and in the assay filed under Homo sapiens [2] was > 1000 throughout. For the same molecule, the EC50 in assay [5], in assay [6] and in assay [4] was > 10000 nM throughout.
On to `Cc1cc(CCC(=O)O)ccc1-c1nnc(-c2ccc(OCC(C)C)c(C#N)c2)s1`, for which the Selectivity ratio in the assay filed under Homo sapiens [1] is > 1000; in the assay filed under Homo sapiens [2], > 1000; in the assay filed under Homo sapiens [3], 200. Moreover, the concentration giving a half-maximal response (EC50) in assay [4] worked out at 2.8 nM.
For `Cc1cc(CCC(=O)O)ccc1-c1nnc(-c2cccc(C#N)c2)s1`, the Selectivity ratio in the assay listed under Homo sapiens [1] and in the assay listed under Homo sapiens [2] was > 1000 in each case. The EC50 in assay [4] is > 1000 nM.
Regarding `Cc1cc(CCC(=O)O)ccc1-c1cnc(-c2ccc(OC(C)C)c(C#N)c2)s1`, the Selectivity ratio in the assay listed under Homo sapiens [1] and in the assay filed under Homo sapiens [2] was > 1000 each time. The values for the EC50 in assay [5], in assay [6] and in assay [4] were > 10000 nM, 200 nM and 14 nM, respectively.
`Cc1cc(CCC(=O)O)ccc1-c1nnc(-c2ccc(OC(C)C)c(C#N)c2)[nH]1`: the EC50 is > 10000 nM in assay [5], > 10000 nM in assay [6] and 380 nM in assay [4].
Regarding `Cc1cc(CCC(=O)O)ccc1-c1nnc(-c2ccc(OC(CF)CF)c(C#N)c2)s1`, the figures for the Selectivity ratio in the assay filed under Homo sapiens [1], in the assay listed under Homo sapiens [2] and in the assay listed under Homo sapiens [3] were > 1000, > 1000 and 390, respectively. In assay [4], the EC50 was 0.23 nM.
As to `Cc1cc(CCC(=O)O)ccc1-c1nnc(-c2ccc(OCCF)c(C#N)c2)s1`, the figures for the Selectivity ratio in the assay listed under Homo sapiens [1], in the assay filed under Homo sapiens [2] and in the assay listed under Homo sapiens [3] were > 1000, > 1000 and > 100, respectively. Moreover, in assay [4], the 50% effective concentration (EC50) amounted to 9.5 nM.
Regarding `Cc1cc(CCC(=O)O)ccc1-c1nnc(-c2ccc(OCC(=O)O)c(C#N)c2)s1`, the Selectivity ratio in the assay filed under Homo sapiens [1] is > 1000; in the assay filed under Homo sapiens [2], > 1000; in the assay listed under Homo sapiens [3], 28. The EC50 in assay [4] was 360 nM.
Regarding `Cc1cc(CCC(=O)O)ccc1-c1nnc(-c2ccc(OC(C(F)(F)F)C(F)(F)F)c(C#N)c2)s1`, the Selectivity ratio in the assay listed under Homo sapiens [1] was > 1000; in the assay listed under Homo sapiens [2] it was > 1000; in the assay filed under Homo sapiens [3], 2. The EC50 in assay [4] was found to be 38 nM.
For `Cc1cc(CCC(=O)O)ccc1-c1ncc(-c2ccc(OC(C)C)c(C#N)c2)o1`, the Selectivity ratio in the assay listed under Homo sapiens [1] and in the assay filed under Homo sapiens [2] was > 1000 each time. The concentration for a half-maximal effect (EC50) was > 10000 nM in assay [5], > 10000 nM in assay [6] and 5.1 nM in assay [4].
`Cc1cc(CCC(=O)O)ccc1-c1ccc(-c2ccc(OC(C)C)c(C#N)c2)s1`: the Selectivity ratio in the assay filed under Homo sapiens [1] and in the assay filed under Homo sapiens [2] was > 1000 each time. Moreover, the figures for the EC50 in assay [5], in assay [6] and in assay [4] were > 10000 nM, 220 nM and 0.93 nM, respectively.
Take `Cc1cc(CCC(=O)O)ccc1-n1nnc(-c2ccc(OC(C)C)c(C#N)c2)n1`: the Selectivity ratio in the assay listed under Homo sapiens [1] and in the assay filed under Homo sapiens [2] was > 1000 in each case. In addition, the EC50 is > 10000 nM in assay [5], 150 nM in assay [6] and 0.98 nM in assay [4].
For the molecule `Cc1cc(CCC(=O)O)ccc1-c1nnc(-c2ccc(F)c(C#N)c2)s1`, the values for the Selectivity ratio in the assay listed under Homo sapiens [1], in the assay filed under Homo sapiens [2] and in the assay listed under Homo sapiens [3] were > 1000, > 1000 and 18, respectively. Further, in assay [4], the EC50 was found to be 570 nM.
Consider `Cc1cc(CCC(=O)O)ccc1-c1nnc(-c2ccc(CC(C)C)c(C#N)c2)s1`, for which the figures for the Selectivity ratio in the assay filed under Homo sapiens [1], in the assay filed under Homo sapiens [2] and in the assay listed under Homo sapiens [3] were > 1000, > 1000 and 320, respectively. For the same molecule, in assay [4], the EC50 turned out to be 0.16 nM.
Consider `Cc1cc(CCC(=O)O)ccc1-c1nnn(-c2ccc(OC(C)C)c(C#N)c2)n1`, for which the Selectivity ratio in the assay listed under Homo sapiens [1] and in the assay listed under Homo sapiens [2] was > 1000 throughout. The EC50 in assay [5] was > 10000 nM; in assay [6] it was 43 nM; in assay [4], 1.6 nM.
On to `Cc1cc(CCC(=O)O)ccc1-c1noc(-c2cnc(OC(C)C)c(Cl)c2)n1`, for which the Selectivity ratio in the assay listed under Homo sapiens [1] and in the assay filed under Homo sapiens [2] was > 1000 each time. Besides, the EC50 in assay [5] is 950 nM; in assay [6] it was 950 nM; in assay [4] it was 0.73 nM.
For the molecule `CCOc1ccc(-c2nnc(-c3ccc(CCC(=O)O)cc3C)s2)cc1C#N`, the Selectivity ratio in the assay filed under Homo sapiens [1] was > 1000; in the assay listed under Homo sapiens [2], > 1000; in the assay listed under Homo sapiens [3] it was 480. Also, in assay [4], the EC50 was determined as 2.1 nM.
As to `COc1ccc(-c2nnc(-c3ccc(CCC(=O)O)cc3C)s2)cc1C#N`, the values for the Selectivity ratio in the assay listed under Homo sapiens [1], in the assay listed under Homo sapiens [2] and in the assay listed under Homo sapiens [3] were > 1000, > 1000 and > 100, respectively. Besides, the EC50 in assay [4] is 97 nM.
For `Cc1cc(CCC(=O)O)ccc1-c1nnc(-c2ccc(OCC(F)F)c(C#N)c2)s1`, the Selectivity ratio in the assay filed under Homo sapiens [1] was > 1000; in the assay listed under Homo sapiens [2] it was > 1000; in the assay listed under Homo sapiens [3], 230. For the same molecule, the EC50 in assay [4] came out at 1.1 nM.
Take `Cc1cc(CCC(=O)O)ccc1-c1noc(-c2ccc(OC(C)C)c(C#N)c2)n1`: the Selectivity ratio in the assay filed under Homo sapiens [1] and in the assay filed under Homo sapiens [2] was > 1000 each time. In addition, the EC50 in assay [5] was determined as 110 nM; in assay [6] it was 13 nM; in assay [4], 0.1 nM.
For `Cc1cc(CCC(=O)O)ccc1-c1nc(C)c(-c2ccc(OC(C)C)c(C#N)c2)s1`, the Selectivity ratio in the assay listed under Homo sapiens [1] and in the assay filed under Homo sapiens [2] was > 1000 throughout. Besides, the EC50 is > 10000 nM in assay [5], > 10000 nM in assay [6] and > 3600 nM in assay [4].
In the case of `Cc1cc(CCC(=O)O)ccc1-c1nnc(-c2ccc(OCC(F)(F)F)c(C#N)c2)s1`, the Selectivity ratio in the assay filed under Homo sapiens [1] was > 1000; in the assay listed under Homo sapiens [2], > 1000; in the assay filed under Homo sapiens [3] it was 400. Moreover, the EC50 in assay [4] came out at 0.6 nM.
Turning to `CCC(C)Oc1ccc(-c2nnc(-c3ccc(CCC(=O)O)cc3C)s2)cc1C#N` (stereo not drawn), the Selectivity ratio in the assay filed under Homo sapiens [1] is > 1000; in the assay filed under Homo sapiens [2], > 1000; in the assay filed under Homo sapiens [3] it was 120. The EC50 in assay [4] was found to be 0.28 nM.
`Cc1cc(CCC(=O)O)ccc1-c1nnc(-c2ccc(-c3cccs3)c(C#N)c2)s1`: the Selectivity ratio in the assay filed under Homo sapiens [1] is > 1000; in the assay listed under Homo sapiens [2], > 1000; in the assay listed under Homo sapiens [3], 110. Moreover, in assay [4], the EC50 was found to be 1.9 nM.
On to `Cc1cc(CCC(=O)O)ccc1-c1nnc(-c2ccc(OC(C)C)c(C#N)c2)o1`, for which the Selectivity ratio in the assay filed under Homo sapiens [1] and in the assay listed under Homo sapiens [2] was > 1000 in each case. The EC50 is > 10000 nM in assay [5], 460 nM in assay [6] and 1.1 nM in assay [4].
On to `Cc1cc(CCC(=O)O)ccc1-c1csc(-c2ccc(OC(C)C)c(C#N)c2)c1`, for which the Selectivity ratio in the assay filed under Homo sapiens [1] and in the assay listed under Homo sapiens [2] was > 1000 each time. The values for the EC50 in assay [5], in assay [6] and in assay [4] were > 10000 nM, 3200 nM and 1200 nM, respectively.
With `Cc1cc(CCC(=O)O)ccc1-c1nc(-c2ccc(OC(C)C)c(C#N)c2)n[nH]1`, the Selectivity ratio in the assay filed under Homo sapiens [1] and in the assay filed under Homo sapiens [2] was > 1000 throughout.
Turning to `Cc1cc(CCC(=O)O)ccc1-c1ccc(-c2ccc(OC(C)C)c(C#N)c2)n1C`, the Selectivity ratio in the assay filed under Homo sapiens [1] and in the assay listed under Homo sapiens [2] was > 1000 each time. Moreover, the EC50 in assay [5], in assay [6] and in assay [4] was > 10000 nM in each case.
For the molecule `Cc1cc(CCC(=O)O)ccc1-c1nnc(-c2ccc(OC(C)C)c(C#N)c2)s1`, the Selectivity ratio is > 1000 in the assay filed under Homo sapiens [1], > 1000 in the assay listed under Homo sapiens [2] and 210 in the assay filed under Homo sapiens [3]. Moreover, the EC50 in assay [4] was found to be 0.2 nM.
For the molecule `Cc1cc(CCC(=O)O)ccc1-c1nnc(-c2ccc(OCCC(F)(F)F)c(C#N)c2)s1`, the Selectivity ratio in the assay listed under Homo sapiens [1] is > 1000; in the assay filed under Homo sapiens [2], > 1000; in the assay listed under Homo sapiens [3], 30. In assay [4], the concentration for a half-maximal effect (EC50) came out at 7.7 nM.
In the case of `Cc1cc(CCC(=O)O)ccc1-c1cc(-c2ccc(OC(C)C)c(C#N)c2)cs1`, the Selectivity ratio in the assay listed under Homo sapiens [1] and in the assay filed under Homo sapiens [2] was > 1000 throughout. Also, the figures for the EC50 in assay [5], in assay [6] and in assay [4] were > 10000 nM, 3200 nM and 290 nM, respectively.
For the molecule `Cc1cc(CCC(=O)O)ccc1-c1nnc(-c2cnc(OC(C)C)c(Cl)c2)s1`, the Selectivity ratio in the assay filed under Homo sapiens [1] and in the assay filed under Homo sapiens [2] was > 1000 in each case. Moreover, in assay [7], the inhibition is 36%. Further, the EC50 in assay [6] came to 1300 nM; in assay [4], 2.1 nM.
In the case of `Cc1cc(CCC(=O)O)ccc1-c1nnc(-c2ccc(OC3CCC3)c(C#N)c2)s1`, the Selectivity ratio in the assay listed under Homo sapiens [1] is > 1000; in the assay listed under Homo sapiens [2], > 1000; in the assay filed under Homo sapiens [3], 170. Further, the EC50 in assay [4] stood at 0.79 nM.
